# Assay results taken from patent publication US11384113B2, “Cobalamin derivatives and their use for the treatment of diseases caused by lack of vitamin B12 supply” (Albert-Ludwigs-Universitaet Freiburg, priority 2017, dated 2022).
# Substitutions are numbered along the chain they refer to. Read-outs that look alike come from different tables or passages of the source.
# Tests used:
# [1] = base-on to base-off equilibrium; cited from earlier work
# [2] = cited from earlier work
# [3] = biological target: T1, human recombinant CblC pathogenic mutant Arg161Gly (Homo sapiens, UniProt Q9Y4U1, R161G); assay type: biochemical; conditions: for Product under ambient conditions, Mutant Arg161Gly: dealkylation, 5 mM GSH; for Half-life of beta-axial ligand removal, Mutant Arg161Gly: human, pH 7.6
# T1 sequence (Q9Y4U1 1-282 R161G): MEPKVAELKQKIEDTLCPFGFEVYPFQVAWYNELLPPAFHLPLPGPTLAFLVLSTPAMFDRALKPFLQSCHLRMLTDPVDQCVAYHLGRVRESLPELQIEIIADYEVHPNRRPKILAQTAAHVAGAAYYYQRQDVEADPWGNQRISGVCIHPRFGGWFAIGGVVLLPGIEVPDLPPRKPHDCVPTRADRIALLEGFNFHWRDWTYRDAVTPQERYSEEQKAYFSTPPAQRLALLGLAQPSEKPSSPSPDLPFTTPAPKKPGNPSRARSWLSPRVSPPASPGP
# Description: (§1) The ability of the newly synthesized Cbl derivatives to serve as substrates for CblC was examined (FIG. 12). CblC activity was measured by UV-visible spectroscopy according to published procedures. Analysis of reaction products was performed by mass spectrometry. We measured dealkylation and de-thiolation of Co—C and Co—S bonded Cbl derivatives, respectively, by wild type and mutant CblC proteins to determine whether these reactions could be supported in patients harboring an abnormal isoform of CblC with low or no enzymatic activity.
# (§2) First, the ability of novel cobalamins described herein was tested to act as substrate for wild type CblC and to restore the lost activity of pathogenic variants, such as mutant Arg161Gly, that leads to early-onset form of the cblC disease.
# [4] = biological target: T2, human recombinant CblC wild type (Homo sapiens, UniProt Q9Y4U1); assay type: biochemical; conditions: for Product under ambient conditions, Wild type CblC: dealkylation, 5 mM GSH; for Half-life of beta-axial ligand removal, Wild type CblC: human, pH 7.6
# T2 sequence (Q9Y4U1 1-282): T1 sequence (Q9Y4U1 1-282 R161G) with G161R
# Description: as §1
# The enzymatic activity of CblC in the presence of CyaCbl and MPGCbl as substrates was evaluated under the same experimental conditions utilized to examine dealkylation of MeCbl and AdoCbl. […] The reaction was complete in less than 10 seconds, which is the time it takes to record the first spectrum after mixing of CblC-bound to CyaCbl or MPGCbl with 5 mM GSH (FIG. 12).
# as §2
# [5] = tested on: fibroblasts from healthy subjects; test: MMA in conditioned medium of control fibroblasts; assay type: cell-based, human
# Description: (§3) Cultured cells from control (healthy neonatal subjects) or cblC fibroblasts were supplemented without exogenous Cbl (negative control), with commercial CNCbl (current therapy control) or with the newly synthesized cobalamins (test group). The ability of these compounds to support intracellular Cbl metabolism in the absence of CblC was examined by monitoring disease biomarker metabolites Hcy and MMA levels in the conditioned medium.
# (§4) The cellular response to treatment with new derivatives CyaCbl and MPGCbl in comparison with current therapeutic form CNCbl was measured. The ability of the new cobalamin derivatives CyaCbl and MPGCbl to achieve metabolic control, i.e. reduction of for example MMA production by cblC fibroblasts in culture, was examined as described in previously published experimental protocols. FIG. 13 provides a comparison of the effect of CNCbl (0.001 mM) versus the same dose of CyaCbl or MPGCbl given to cultured fibroblasts from healthy subjects (HFF, NHDF, PCS, Wiesel, Control) or from cblC patients (WG1801, WG2176, WG3354, GM10011, GM02345B, GM02452C).
# (§5) Additional examination of the effect of thiolatocobalamins CyaCbl and MPGCbl and sulfur-containing alkylcobalamin Me-S-MeCbl with respect to structural analogues that are NOT available for therapy was also carried out, for comparative purposes. The results of cellular response (healthy controls and cblC patient fibroblasts) to cobalamin treatment, as reflected by MMA levels is provided in Table 6.
# [6] = tested on: fibroblasts isolated from patients with cblC disease; test: MMA in conditioned medium of cblC patient fibroblasts; assay type: cell-based, human
# Description: as §3, §4, §5
# [7] = Controls (group value), after 7 days
# [8] = Controls, after 7 days wash-off period without supplemental cobalamin
# [9] = HFF control fibroblasts, after 7 days
# [10] = NHDF control fibroblasts, after 7 days
# [11] = Wiezel control fibroblasts, after 7 days
# [12] = GM02345B cblC fibroblasts, after 7 days
# [13] = GM02452C cblC fibroblasts, after 7 days
# [14] = GM10011 cblC fibroblasts, after 7 days
# [15] = WG1801 cblC fibroblasts, after 7 days
# [16] = WG2176 cblC fibroblasts, after 7 days
# [17] = WG3354 cblC fibroblasts, after 7 days
# [18] = cblC patients (group value), after 7 days
# [19] = cblC patients, after 7 days wash-off period without supplemental cobalamin
compound,measurement,setting,value
"C/C1=C2/[N-][C@H]([C@H](CC(N)=O)[C@@]2(C)CCC(=O)NC[C@@H](C)OP(=O)([O-])O[C@H]2[C@@H](O)[C@@H](n3cnc4cc(C)c(C)cc43)O[C@@H]2CO)[C@]2(C)N=C(/C(C)=C3N=C(/C=C4N=C1[C@@H](CCC(N)=O)C\4(C)C)[C@@H](CCC(N)=O)[C@]\3(C)CC(N)=O)[C@@H](CCC(N)=O)[C@]2(C)CC(N)=O.[CH2-][C@H]1O[C@@H](n2cnc3c(N)ncnc32)[C@H](O)[C@@H]1O.[Co] [AdoCbl, Adenosylcobalamin]",pKa of base on/base off,[1],3.50
same,Redox potential [V] relative to NHE,"[2]; electrochemical, DMF/methanol",−1.04 V
"CC1=C2N=C(C=C3N=C(C(C)=C4[N-]C(C(CC(N)=O)C4(C)CCC(=O)NCC(C)OP(=O)([O-])OC4C(CO)OC(n5cnc6cc(C)c(C)cc65)C4O)C4(C)N=C1C(CCC(N)=O)C4(C)CC(N)=O)C(CCC(N)=O)C3(C)C)C(CCC(N)=O)C2(C)CC(N)=O.CCC[CH2][Co+2] (centres unmarked) [BuCbl, butylcobalamin, reference compound]","Product under ambient conditions, Mutant Arg161Gly",[3],No reaction
same,"Half-life of beta-axial ligand removal, Mutant Arg161Gly",[3],0 min
same,"Product under ambient conditions, Wild type CblC",[4],H2OCbl
same,"Half-life of beta-axial ligand removal, Wild type CblC",[4],1155 min
"C/C1=C2/[N-][C@H]([C@H](CC(N)=O)[C@@]2(C)CCC(=O)NC[C@@H](C)OP(=O)([O-])O[C@H]2[C@@H](O)[C@@H](n3cnc4cc(C)c(C)cc43)O[C@@H]2CO)[C@]2(C)N=C(/C(C)=C3N=C(/C=C4N=C1[C@@H](CCC(N)=O)C\4(C)C)[C@@H](CCC(N)=O)[C@]\3(C)CC(N)=O)[C@@H](CCC(N)=O)[C@]2(C)CC(N)=O.[Co].[OH3+] [H2O, Aquacobalamin]",pKa of base on/base off,[1],−2.40
same,Redox potential [V] relative to NHE,[2]; 22° C.,0.20 V
"C/C1=C2/[N-][C@H]([C@H](CC(N)=O)[C@@]2(C)CCC(=O)NC[C@H](C)OP(=O)([O-])O[C@H]2[C@@H](O)[C@@H](n3cnc4cc(C)c(C)cc43)O[C@@H]2CO)[C@]2(C)N=C(/C(C)=C3N=C(/C=C4N=C1[C@@H](CCC(N)=O)C\4(C)C)[C@@H](CCC(N)=O)[C@]\3(C)CC(N)=O)[C@@H](CCC(N)=O)[C@]2(C)CC(N)=O.[CH3-].[Co+3] [MeCbl, Methylcobalamin, reference compound]",MMA in conditioned medium,[5]; [7],0.118 μmol/mg protein
same,MMA in conditioned medium,[5]; [8],0.131 μmol/mg protein
same,MMA in conditioned medium,[5]; [9],0.106 μmol/mg protein
same,MMA in conditioned medium,[5]; [10],0.152 μmol/mg protein
same,MMA in conditioned medium,[5]; [11],0.095 μmol/mg protein
same,MMA in conditioned medium,[6]; [12],0.250 μmol/mg protein
same,MMA in conditioned medium,[6]; [13],0.243 μmol/mg protein
same,MMA in conditioned medium,[6]; [14],0.066 μmol/mg protein
same,MMA in conditioned medium,[6]; [15],0.429 μmol/mg protein
same,MMA in conditioned medium,[6]; [16],0.459 μmol/mg protein
same,MMA in conditioned medium,[6]; [17],0.891 μmol/mg protein
same,MMA in conditioned medium,[6]; [18],0.390 μmol/mg protein
same,MMA in conditioned medium,[6]; [19],0.298 μmol/mg protein
same,pKa of base on/base off,[1],2.90
same,"Product under ambient conditions, Mutant Arg161Gly",[3],Cob(II)alamin
same,"Half-life of beta-axial ligand removal, Mutant Arg161Gly",[3],60 min
same,"Product under ambient conditions, Wild type CblC",[4],H2OCbl
same,"Half-life of beta-axial ligand removal, Wild type CblC",[4],10 min
same,Redox potential [V] relative to NHE,"[2]; electrochemical, 20° C.",−1.20 V
CC1=C2N=C(C=C3N=C(C(C)=C4[N-]C(C(CC(N)=O)C4(C)CCC(=O)NCC(C)OP(=O)([O-])OC4C(CO)OC(n5cnc6cc(C)c(C)cc65)C4O)C4(C)N=C1C(CCC(N)=O)C4(C)CC(N)=O)C(CCC(N)=O)C3(C)C)C(CCC(N)=O)C2(C)CC(N)=O.CSC[CH2][Co+2] (centres unmarked) [Me—S—EtCbl],"Product under ambient conditions, Mutant Arg161Gly",[3],Cob(II)alamin
same,"Half-life of beta-axial ligand removal, Mutant Arg161Gly",[3],11.5 min
same,"Product under ambient conditions, Wild type CblC",[4],H2OCbl/Cob(II)alamin
same,"Half-life of beta-axial ligand removal, Wild type CblC",[4],7.5 min
CC1=C2N=C(C=C3N=C(C(C)=C4[N-]C(C(CC(N)=O)C4(C)CCC(=O)NCC(C)OP(=O)([O-])OC4C(CO)OC(n5cnc6cc(C)c(C)cc65)C4O)C4(C)N=C1C(CCC(N)=O)C4(C)CC(N)=O)C(CCC(N)=O)C3(C)C)C(CCC(N)=O)C2(C)CC(N)=O.CS[CH2][Co+2] (centres unmarked) [Me—S—MeCbl],MMA in conditioned medium,[5]; [7],0.122 μmol/mg protein
same,MMA in conditioned medium,[5]; [8],0.145 μmol/mg protein
same,MMA in conditioned medium,[5]; [9],0.132 μmol/mg protein
same,MMA in conditioned medium,[5]; [10],0.103 μmol/mg protein
same,MMA in conditioned medium,[5]; [11],0.132 μmol/mg protein
same,MMA in conditioned medium,[6]; [12],0.150 μmol/mg protein
same,MMA in conditioned medium,[6]; [13],0.150 μmol/mg protein
same,MMA in conditioned medium,[6]; [14],0.041 μmol/mg protein
same,MMA in conditioned medium,[6]; [15],0.254 μmol/mg protein
same,MMA in conditioned medium,[6]; [16],0.083 μmol/mg protein
same,MMA in conditioned medium,[6]; [17],0.148 μmol/mg protein
same,MMA in conditioned medium,[6]; [18],0.138 μmol/mg protein
same,MMA in conditioned medium,[6]; [19],0.177 μmol/mg protein
same,"Product under ambient conditions, Mutant Arg161Gly",[3],Cob(II)alamin
same,"Half-life of beta-axial ligand removal, Mutant Arg161Gly",[3],12 min
same,"Product under ambient conditions, Wild type CblC",[4],H2OCbl/Cob(II)alamin
same,"Half-life of beta-axial ligand removal, Wild type CblC",[4],8.5 min
CC1=C2N=C(C=C3N=C(C(C)=C4[N-]C(C(CC(N)=O)C4(C)CCC(=O)NCC(C)OP(=O)([O-])OC4C(CO)OC(n5cnc6cc(C)c(C)cc65)C4O)C4(C)N=C1C(CCC(N)=O)C4(C)CC(N)=O)C(CCC(N)=O)C3(C)C)C(CCC(N)=O)C2(C)CC(N)=O.O=[N+]([O-])[Co+2] (centres unmarked) [NO2],pKa of base on/base off,[1],−0.15
"CC1=C2N=C(C=C3N=C(C(C)=C4[N-]C(C(CC(N)=O)C4(C)CCC(=O)NCC(C)OP(=O)([O-])OC4C(CO)OC(n5cnc6cc(C)c(C)cc65)C4O)C4(C)N=C1C(CCC(N)=O)C4(C)CC(N)=O)C(CCC(N)=O)C3(C)C)C(CCC(N)=O)C2(C)CC(N)=O.CC[CH2][Co+2] (centres unmarked) [PrCbl, propylcobalamin, reference compound]","Product under ambient conditions, Mutant Arg161Gly",[3],No reaction
same,"Half-life of beta-axial ligand removal, Mutant Arg161Gly",[3],0 min
same,"Product under ambient conditions, Wild type CblC",[4],H2OCbl
same,"Half-life of beta-axial ligand removal, Wild type CblC",[4],318 min
CC1=C2N=C(C=C3N=C(C(C)=C4[N-]C(C(CC(N)=O)C4(C)CCC(=O)NCC(C)OP(=O)([O-])OC4C(CO)OC(n5cnc6cc(C)c(C)cc65)C4O)C4(C)N=C1C(CCC(N)=O)C4(C)CC(N)=O)C(CCC(N)=O)C3(C)C)C(CCC(N)=O)C2(C)CC(N)=O.N#C[S][Co+2] (centres unmarked) [SCN^−],pKa of base on/base off,[1],3.40
cyanocobalamin [CNCbl],pKa of base on/base off,[1],0.10
same,Redox potential [V] relative to NHE,"[2]; electrochemical, DMSO/propanol",−0.76 V
